Columns and labels:
Experiment in all cases: radiometric filter-binding kinase assay
[1] = target: BTK (human) (UniProt Q06187); settings: ATP 50 µM
[2] = target: CDK2 CCNA2 (human) (UniProt P20248+P24941); settings: ATP 20 µM
[3] = target: CHEK2 (human) (UniProt O96017); settings: ATP 20 µM
[4] = target: CSNK1D (human) (UniProt P48730); settings: ATP 20 µM
[5] = target: DYRK1A (human) (UniProt Q13627); settings: ATP 50 µM
[6] = target: EPHA2 (human) (UniProt P29317); settings: ATP 50 µM
[7] = target: FGFR1 (human) (UniProt P11362); settings: ATP 20 µM
[8] = target: HIPK2 (human) (UniProt Q9H2X6); settings: ATP 5 µM
Chain of HIPK2 (human) (Q9H2X6 whole entry, looked up): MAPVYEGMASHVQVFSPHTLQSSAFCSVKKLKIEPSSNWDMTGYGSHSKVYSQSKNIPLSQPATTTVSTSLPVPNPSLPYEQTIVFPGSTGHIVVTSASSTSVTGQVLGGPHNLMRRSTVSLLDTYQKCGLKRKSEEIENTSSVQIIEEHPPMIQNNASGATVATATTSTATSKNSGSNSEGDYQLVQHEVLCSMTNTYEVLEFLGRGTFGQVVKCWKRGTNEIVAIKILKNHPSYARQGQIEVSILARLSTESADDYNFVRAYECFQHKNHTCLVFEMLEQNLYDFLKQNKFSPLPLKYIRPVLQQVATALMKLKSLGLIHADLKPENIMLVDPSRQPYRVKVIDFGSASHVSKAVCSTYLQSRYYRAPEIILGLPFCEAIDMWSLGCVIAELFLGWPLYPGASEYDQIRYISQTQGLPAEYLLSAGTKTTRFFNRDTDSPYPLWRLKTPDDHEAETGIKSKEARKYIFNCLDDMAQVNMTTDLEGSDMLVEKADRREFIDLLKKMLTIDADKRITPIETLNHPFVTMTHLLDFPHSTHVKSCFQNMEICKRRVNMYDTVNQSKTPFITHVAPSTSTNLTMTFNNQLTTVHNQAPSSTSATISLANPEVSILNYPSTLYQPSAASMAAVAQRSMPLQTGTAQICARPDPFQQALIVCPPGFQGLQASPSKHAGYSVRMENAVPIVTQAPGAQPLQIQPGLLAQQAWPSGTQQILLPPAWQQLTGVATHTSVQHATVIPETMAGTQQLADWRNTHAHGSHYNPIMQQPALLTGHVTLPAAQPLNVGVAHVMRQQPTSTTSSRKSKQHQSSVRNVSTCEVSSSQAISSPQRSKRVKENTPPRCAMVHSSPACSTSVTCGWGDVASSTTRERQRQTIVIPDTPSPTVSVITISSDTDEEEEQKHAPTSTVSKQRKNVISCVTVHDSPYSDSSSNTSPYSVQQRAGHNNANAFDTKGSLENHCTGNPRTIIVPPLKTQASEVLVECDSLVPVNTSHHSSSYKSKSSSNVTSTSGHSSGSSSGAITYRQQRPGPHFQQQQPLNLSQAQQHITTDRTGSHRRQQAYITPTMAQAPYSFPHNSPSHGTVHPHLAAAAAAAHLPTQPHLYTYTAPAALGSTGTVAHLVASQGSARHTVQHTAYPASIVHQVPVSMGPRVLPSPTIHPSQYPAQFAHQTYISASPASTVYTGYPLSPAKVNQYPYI

[9] = target: IGF1R (human) (UniProt P08069); settings: ATP 5 µM
[10] = target: IKBKB (human) (UniProt O14920); settings: ATP 5 µM
Chain of IKBKB (human) (O14920 whole entry, looked up): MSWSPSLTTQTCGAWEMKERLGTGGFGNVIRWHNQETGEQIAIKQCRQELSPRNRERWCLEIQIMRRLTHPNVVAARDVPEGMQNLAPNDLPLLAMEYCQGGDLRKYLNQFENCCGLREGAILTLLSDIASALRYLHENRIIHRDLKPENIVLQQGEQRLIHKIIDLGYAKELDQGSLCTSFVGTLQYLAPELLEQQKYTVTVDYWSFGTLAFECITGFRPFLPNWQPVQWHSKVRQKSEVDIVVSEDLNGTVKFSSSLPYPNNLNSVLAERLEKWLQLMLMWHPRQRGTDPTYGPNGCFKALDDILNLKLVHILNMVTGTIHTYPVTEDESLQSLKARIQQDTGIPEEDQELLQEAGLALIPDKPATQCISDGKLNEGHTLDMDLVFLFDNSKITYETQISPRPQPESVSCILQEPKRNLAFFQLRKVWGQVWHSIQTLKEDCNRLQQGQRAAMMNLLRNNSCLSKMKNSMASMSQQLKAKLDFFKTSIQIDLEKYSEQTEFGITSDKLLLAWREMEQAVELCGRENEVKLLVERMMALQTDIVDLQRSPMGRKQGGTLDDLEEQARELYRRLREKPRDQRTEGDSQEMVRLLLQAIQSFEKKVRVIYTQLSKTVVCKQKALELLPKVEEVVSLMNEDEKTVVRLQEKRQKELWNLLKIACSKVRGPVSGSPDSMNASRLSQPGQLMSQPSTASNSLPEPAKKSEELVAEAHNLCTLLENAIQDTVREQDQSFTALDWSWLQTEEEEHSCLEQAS

[11] = target: IKBKE (human) (UniProt Q14164); settings: ATP 50 µM
[12] = test system: LCK (mouse); settings: ATP 50 µM, accession and sequence are those of the human protein
[13] = target: MAPK12 (human) (UniProt P53778); settings: ATP 5 µM
[14] = target: MAPK15 (human) (UniProt Q8TD08); settings: ATP 5 µM
Chain of MAPK15 (human) (Q8TD08 whole entry, looked up): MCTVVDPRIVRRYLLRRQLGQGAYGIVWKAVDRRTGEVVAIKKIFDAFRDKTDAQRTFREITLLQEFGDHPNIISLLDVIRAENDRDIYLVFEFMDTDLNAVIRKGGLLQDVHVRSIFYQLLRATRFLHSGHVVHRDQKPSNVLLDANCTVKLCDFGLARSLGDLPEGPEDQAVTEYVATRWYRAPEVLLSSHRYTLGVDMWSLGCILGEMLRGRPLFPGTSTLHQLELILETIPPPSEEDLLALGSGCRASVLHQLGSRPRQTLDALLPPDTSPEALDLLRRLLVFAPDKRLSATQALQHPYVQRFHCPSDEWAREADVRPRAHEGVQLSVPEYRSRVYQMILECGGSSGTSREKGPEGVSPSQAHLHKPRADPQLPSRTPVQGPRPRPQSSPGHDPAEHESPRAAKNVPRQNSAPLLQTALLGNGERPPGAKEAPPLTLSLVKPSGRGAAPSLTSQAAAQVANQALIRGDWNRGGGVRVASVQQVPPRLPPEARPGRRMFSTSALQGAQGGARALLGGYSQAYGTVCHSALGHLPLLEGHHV

[15] = target: MAPK8 (human) (UniProt P45983); settings: ATP 20 µM
[16] = target: MAPK9 (human) (UniProt P45984); settings: ATP 20 µM
Chain of MAPK9 (human) (P45984 whole entry, looked up): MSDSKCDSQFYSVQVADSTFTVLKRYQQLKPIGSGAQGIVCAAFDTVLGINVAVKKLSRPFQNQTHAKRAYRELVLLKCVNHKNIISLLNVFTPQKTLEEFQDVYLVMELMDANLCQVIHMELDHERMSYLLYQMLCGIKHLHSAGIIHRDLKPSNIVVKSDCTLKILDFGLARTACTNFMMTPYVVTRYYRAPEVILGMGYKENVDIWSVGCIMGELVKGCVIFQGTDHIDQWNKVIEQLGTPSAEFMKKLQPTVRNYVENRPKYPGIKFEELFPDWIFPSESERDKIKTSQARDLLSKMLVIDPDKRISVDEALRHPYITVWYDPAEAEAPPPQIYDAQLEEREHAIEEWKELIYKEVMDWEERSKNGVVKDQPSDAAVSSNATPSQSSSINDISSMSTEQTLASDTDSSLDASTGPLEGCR

[17] = target: MAPKAPK5 (human) (UniProt Q8IW41); settings: ATP 20 µM
Chain of MAPKAPK5 (human) (Q8IW41 whole entry, looked up): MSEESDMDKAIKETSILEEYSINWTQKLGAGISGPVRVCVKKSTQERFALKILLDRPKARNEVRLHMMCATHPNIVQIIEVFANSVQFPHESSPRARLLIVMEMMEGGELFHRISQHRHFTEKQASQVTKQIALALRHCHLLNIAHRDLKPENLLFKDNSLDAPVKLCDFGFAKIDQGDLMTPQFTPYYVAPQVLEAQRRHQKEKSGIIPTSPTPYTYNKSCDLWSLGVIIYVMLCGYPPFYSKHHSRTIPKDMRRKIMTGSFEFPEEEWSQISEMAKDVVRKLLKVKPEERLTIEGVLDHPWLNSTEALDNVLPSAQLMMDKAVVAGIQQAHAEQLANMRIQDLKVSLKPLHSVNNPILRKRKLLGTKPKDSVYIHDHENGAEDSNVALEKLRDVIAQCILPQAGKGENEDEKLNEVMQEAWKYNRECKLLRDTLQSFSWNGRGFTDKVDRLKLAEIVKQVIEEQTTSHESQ

[18] = target: PAK4 (human) (UniProt O96013); settings: ATP 5 µM
Chain of PAK4 (human) (O96013 whole entry, looked up): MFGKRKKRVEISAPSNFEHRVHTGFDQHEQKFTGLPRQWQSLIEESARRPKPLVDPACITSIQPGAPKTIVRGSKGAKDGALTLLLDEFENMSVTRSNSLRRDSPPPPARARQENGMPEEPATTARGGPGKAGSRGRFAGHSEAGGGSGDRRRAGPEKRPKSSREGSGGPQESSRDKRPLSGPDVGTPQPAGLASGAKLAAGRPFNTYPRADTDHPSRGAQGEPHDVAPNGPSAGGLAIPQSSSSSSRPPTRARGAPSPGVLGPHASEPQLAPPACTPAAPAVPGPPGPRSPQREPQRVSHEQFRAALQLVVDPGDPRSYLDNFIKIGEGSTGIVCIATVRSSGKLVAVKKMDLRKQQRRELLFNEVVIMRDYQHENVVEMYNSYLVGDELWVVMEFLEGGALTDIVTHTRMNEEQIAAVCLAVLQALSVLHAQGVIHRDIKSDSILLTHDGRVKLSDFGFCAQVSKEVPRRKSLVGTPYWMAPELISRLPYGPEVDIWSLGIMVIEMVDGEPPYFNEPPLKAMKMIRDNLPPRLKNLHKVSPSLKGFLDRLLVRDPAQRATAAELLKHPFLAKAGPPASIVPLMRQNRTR

[19] = target: PAK6 (human) (UniProt Q9NQU5); settings: ATP 20 µM
[20] = target: PHKG1 (human) (UniProt Q16816); settings: ATP 50 µM
Chain of PHKG1 (human) (Q16816 whole entry, looked up): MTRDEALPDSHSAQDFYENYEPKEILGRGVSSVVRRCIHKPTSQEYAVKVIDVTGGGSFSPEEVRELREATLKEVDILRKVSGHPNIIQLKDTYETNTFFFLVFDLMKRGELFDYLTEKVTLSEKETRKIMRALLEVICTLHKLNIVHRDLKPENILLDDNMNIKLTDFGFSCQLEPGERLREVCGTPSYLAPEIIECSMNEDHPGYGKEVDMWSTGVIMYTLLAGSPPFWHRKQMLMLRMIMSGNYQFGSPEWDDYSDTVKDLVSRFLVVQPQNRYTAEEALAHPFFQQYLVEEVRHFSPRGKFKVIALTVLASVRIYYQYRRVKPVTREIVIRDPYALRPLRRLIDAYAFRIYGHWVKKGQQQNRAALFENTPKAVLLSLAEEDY

[21] = target: PIM1 (human) (UniProt P11309); settings: ATP 20 µM
[22] = target: PIM2 (human) (UniProt Q9P1W9); settings: ATP 5 µM
[23] = target: PIM3 (human) (UniProt Q86V86); settings: ATP 20 µM
[24] = target: PLK1 (human) (UniProt P53350); settings: ATP 5 µM
[25] = test system: ROCK2 (rat); settings: ATP 20 µM, accession and sequence are those of the human protein
[26] = target: SYK (human) (UniProt P43405); settings: ATP 20 µM
[27] = target: TBK1 (human) (UniProt Q9UHD2); settings: ATP 50 µM
[28] = target: YES1 (human) (UniProt P07947); settings: ATP 20 µM

Chain of BTK (human) (Q06187 whole entry, looked up): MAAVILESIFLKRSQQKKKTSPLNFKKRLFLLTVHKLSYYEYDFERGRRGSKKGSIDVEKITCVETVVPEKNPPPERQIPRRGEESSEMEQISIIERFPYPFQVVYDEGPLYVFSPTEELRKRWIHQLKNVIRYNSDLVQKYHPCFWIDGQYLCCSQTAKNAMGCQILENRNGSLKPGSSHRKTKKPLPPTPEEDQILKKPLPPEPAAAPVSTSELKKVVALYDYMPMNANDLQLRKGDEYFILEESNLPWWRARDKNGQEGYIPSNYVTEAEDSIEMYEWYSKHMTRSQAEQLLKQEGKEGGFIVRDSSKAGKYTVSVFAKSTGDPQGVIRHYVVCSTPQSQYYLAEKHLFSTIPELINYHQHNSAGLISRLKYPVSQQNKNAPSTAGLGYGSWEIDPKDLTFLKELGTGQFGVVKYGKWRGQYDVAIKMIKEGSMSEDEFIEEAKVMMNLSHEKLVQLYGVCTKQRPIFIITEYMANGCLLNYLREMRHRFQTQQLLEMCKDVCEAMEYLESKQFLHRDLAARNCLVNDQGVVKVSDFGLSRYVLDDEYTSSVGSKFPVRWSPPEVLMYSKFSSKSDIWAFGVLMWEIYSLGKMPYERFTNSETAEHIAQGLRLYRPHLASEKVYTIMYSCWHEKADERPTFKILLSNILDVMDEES

Q: With `CCc1cncnc1N1CCN(Cc2nc3cc(C(F)(F)F)ccc3[nH]2)CC1` as the compound, how does the residual activity ([1]; compound 0.1 µM) read?
A: The residual activity was 83%.

Q: And the residual activity ([1]; compound 1.0 µM)?
A: Its residual activity is 87%.

Q: What about the residual activity ([1]; compound 10.0 µM) of the same compound?
A: Its residual activity is 92%.

Q: What about the residual activity ([2]; compound 0.1 µM) of the same compound?
A: Its residual activity is 102%.

Q: And the residual activity ([2]; compound 1.0 µM)?
A: Its residual activity is 101%.

Q: And the residual activity ([2]; compound 10.0 µM)?
A: Its residual activity is 88%.

Q: What about the residual activity ([3]; compound 0.1 µM) of the same compound?
A: Its residual activity is 101%.

Q: What about the residual activity ([3]; compound 1.0 µM) of the same compound?
A: Its residual activity is 73%.

Q: What about the residual activity ([3]; compound 10.0 µM) of the same compound?
A: Its residual activity is 72%.

Q: And the residual activity ([4]; compound 0.1 µM)?
A: Its residual activity is 96%.

Q: And the residual activity ([4]; compound 1.0 µM)?
A: The residual activity was 93%.

Q: What about the residual activity ([4]; compound 10.0 µM) of the same compound?
A: Its residual activity is 71%.

Q: What about the residual activity ([5]; compound 0.1 µM) of the same compound?
A: Its residual activity is 99%.

Q: What about the residual activity ([5]; compound 1.0 µM) of the same compound?
A: Its residual activity is 94%.

Q: And the residual activity ([5]; compound 10.0 µM)?
A: Its residual activity is 85%.

Q: What about the residual activity ([6]; compound 0.1 µM) of the same compound?
A: Its residual activity is 95%.

Q: And the residual activity ([6]; compound 1.0 µM)?
A: Its residual activity is 86%.

Q: What about the residual activity ([6]; compound 10.0 µM) of the same compound?
A: The residual activity was 89%.

Q: What about the residual activity ([7]; compound 0.1 µM) of the same compound?
A: The residual activity was 91%.

Q: And the residual activity ([7]; compound 1.0 µM)?
A: The residual activity was 92%.

Q: What about the residual activity ([7]; compound 10.0 µM) of the same compound?
A: Its residual activity is 63%.

Q: And the residual activity ([8]; compound 0.1 µM)?
A: Its residual activity is 108%.

Q: What about the residual activity ([8]; compound 1.0 µM) of the same compound?
A: Its residual activity is 86%.

Q: And the residual activity ([8]; compound 10.0 µM)?
A: Its residual activity is 88%.

Q: And the residual activity ([9]; compound 0.1 µM)?
A: The residual activity was 72%.

Q: What about the residual activity ([9]; compound 1.0 µM) of the same compound?
A: Its residual activity is 95%.

Q: And the residual activity ([9]; compound 10.0 µM)?
A: The residual activity was 82%.

Q: And the residual activity ([10]; compound 0.1 µM)?
A: Its residual activity is 195%.

Q: What about the residual activity ([10]; compound 1.0 µM) of the same compound?
A: Its residual activity is 230%.

Q: And the residual activity ([10]; compound 10.0 µM)?
A: The residual activity was 192%.

Q: And the residual activity ([11]; compound 0.1 µM)?
A: Its residual activity is 103%.

Q: What about the residual activity ([11]; compound 1.0 µM) of the same compound?
A: Its residual activity is 99%.

Q: And the residual activity ([11]; compound 10.0 µM)?
A: The residual activity was 96%.

Q: And the residual activity ([12]; compound 0.1 µM)?
A: The residual activity was 91%.

Q: And the residual activity ([12]; compound 1.0 µM)?
A: The residual activity was 92%.

Q: And the residual activity ([12]; compound 10.0 µM)?
A: The residual activity was 88%.

Q: What about the residual activity ([13]; compound 0.1 µM) of the same compound?
A: Its residual activity is 107%.

Q: And the residual activity ([13]; compound 1.0 µM)?
A: The residual activity was 102%.

Q: What about the residual activity ([13]; compound 10.0 µM) of the same compound?
A: The residual activity was 103%.

Q: What about the residual activity ([14]; compound 0.1 µM) of the same compound?
A: Its residual activity is 85%.

Q: And the residual activity ([14]; compound 1.0 µM)?
A: Its residual activity is 83%.

Q: What about the residual activity ([14]; compound 10.0 µM) of the same compound?
A: The residual activity was 71%.

Q: And the residual activity ([15]; compound 0.1 µM)?
A: The residual activity was 111%.

Q: What about the residual activity ([15]; compound 1.0 µM) of the same compound?
A: The residual activity was 107%.

Q: And the residual activity ([15]; compound 10.0 µM)?
A: The residual activity was 95%.

Q: And the residual activity ([16]; compound 0.1 µM)?
A: The residual activity was 92%.

Q: What about the residual activity ([16]; compound 1.0 µM) of the same compound?
A: Its residual activity is 93%.

Q: What about the residual activity ([16]; compound 10.0 µM) of the same compound?
A: The residual activity was 98%.

Q: What about the residual activity ([17]; compound 0.1 µM) of the same compound?
A: The residual activity was 114%.

Q: And the residual activity ([17]; compound 1.0 µM)?
A: Its residual activity is 97%.

Q: What about the residual activity ([17]; compound 10.0 µM) of the same compound?
A: The residual activity was 87%.

Q: What about the residual activity ([18]; compound 0.1 µM) of the same compound?
A: Its residual activity is 93%.

Q: And the residual activity ([18]; compound 1.0 µM)?
A: The residual activity was 88%.

Q: And the residual activity ([18]; compound 10.0 µM)?
A: The residual activity was 88%.

Q: And the residual activity ([19]; compound 0.1 µM)?
A: Its residual activity is 99%.

Q: And the residual activity ([19]; compound 1.0 µM)?
A: Its residual activity is 83%.

Q: What about the residual activity ([19]; compound 10.0 µM) of the same compound?
A: Its residual activity is 86%.

Q: And the residual activity ([20]; compound 0.1 µM)?
A: Its residual activity is 100%.

Q: And the residual activity ([20]; compound 1.0 µM)?
A: Its residual activity is 96%.

Q: What about the residual activity ([20]; compound 10.0 µM) of the same compound?
A: The residual activity was 104%.

Q: And the residual activity ([21]; compound 0.1 µM)?
A: Its residual activity is 88%.

Q: And the residual activity ([21]; compound 1.0 µM)?
A: The residual activity was 90%.

Q: And the residual activity ([21]; compound 10.0 µM)?
A: Its residual activity is 78%.

Q: And the residual activity ([22]; compound 0.1 µM)?
A: The residual activity was 90%.

Q: And the residual activity ([22]; compound 1.0 µM)?
A: Its residual activity is 90%.

Q: And the residual activity ([22]; compound 10.0 µM)?
A: Its residual activity is 100%.

Q: And the residual activity ([23]; compound 0.1 µM)?
A: The residual activity was 93%.

Q: And the residual activity ([23]; compound 1.0 µM)?
A: Its residual activity is 88%.

Q: What about the residual activity ([23]; compound 10.0 µM) of the same compound?
A: Its residual activity is 83%.

Q: And the residual activity ([24]; compound 0.1 µM)?
A: The residual activity was 98%.

Q: And the residual activity ([24]; compound 1.0 µM)?
A: Its residual activity is 87%.

Q: And the residual activity ([24]; compound 10.0 µM)?
A: Its residual activity is 88%.

Q: What about the residual activity ([25]; compound 0.1 µM) of the same compound?
A: Its residual activity is 98%.

Q: What about the residual activity ([25]; compound 1.0 µM) of the same compound?
A: Its residual activity is 91%.

Q: What about the residual activity ([25]; compound 10.0 µM) of the same compound?
A: Its residual activity is 58%.

Q: And the residual activity ([26]; compound 0.1 µM)?
A: Its residual activity is 121%.

Q: What about the residual activity ([26]; compound 1.0 µM) of the same compound?
A: The residual activity was 100%.

Q: And the residual activity ([26]; compound 10.0 µM)?
A: Its residual activity is 91%.

Q: What about the residual activity ([27]; compound 0.1 µM) of the same compound?
A: Its residual activity is 100%.

Q: What about the residual activity ([27]; compound 1.0 µM) of the same compound?
A: Its residual activity is 89%.

Q: And the residual activity ([27]; compound 10.0 µM)?
A: The residual activity was 93%.

Q: What about the residual activity ([28]; compound 0.1 µM) of the same compound?
A: The residual activity was 98%.

Q: What about the residual activity ([28]; compound 1.0 µM) of the same compound?
A: Its residual activity is 84%.

Q: And the residual activity ([28]; compound 10.0 µM)?
A: The residual activity was 76%.

From the kinase profiling compilation of Christmann-Franck et al. (2016)
